Key:
[1] = Disulfide formation assay: thiol stability in P. aeruginosa culture supernatant (LC-MS); assay type: in vitro ADME; conditions: Pseudomonas aeruginosa, pH 7.4, P. aeruginosa culture supernatant, 37 °C, read-out: thiol half-life (conversion into disulfide)
Source text: Disulfide formation in the presence of P. aeruginosa culture supernatant was studied for the two inhibitors 11 and 12 and analyzed by liquid chromatography-mass spectrometry (LC-MS) (Fig. 3B). Disulfides 26 and 27 were synthesized via oxidation with H2O2 in DMSO/H2O and used as reference compounds for the stability assay (Fig. 3A). […] The separation of those two peaks of the benzylated derivative 26 using preparative HPLC gave 26a and 26b (m/z of 901.28, Fig. S1 ^†).
In the presence of the bacterial culture supernatant of P. aeruginosa, the conversion of thiols 11 and 12 into the corresponding disulfides 26 and 27 was monitored at 37 °C and thiol half-lives of 48 min for 11 and 70 min for 12 were determined (Fig. 3B).
Disulfide formation assay
The stability of two thiols 11 and 12 and their ability to form the corresponding disulfides was analyzed by HPLC-MS. […] Samples were drawn over 4.5 hours and analyzed by LC-MS using a RP-18 column 100/2 Nucleoshell RP18plus, 2.7 μm from Macherey-Nagel, Germany (H2O/MeCN + 0.1% formic acid, 15 – 55% MeCN, retention time (t R) 5.8 min (11 or 12), 6.1 min and 6.3 min (disulfide products 26 or 27) on a Thermo Dionex Ultimate 3000 HPLC coupled to a Bruker amaZon SL mass spectrometer, with UV detection at 254 nm). Thiol half-lives were determined by analysis of the obtained graphs and values of 80 min for 11 and 46 min for 12 were obtained […]

A549 cells = test: Inhibition of LasB-dependent cytotoxicity of P. aeruginosa PAO1 culture supernatant on A549 cells (MTT); assay type: cell-based, human; conditions: for A549 cell viability under PAO1 culture supernatant: 10% (v/v) PAO1 supernatant
Procedure: Next, we set out to analyze the ability of the dual inhibitor 12 and the individual treatment or combination of galactoside 1 and thiol 2 to reduce LasB-dependent cytotoxicity from P. aeruginosa PAO1 culture supernatant on A549 cells. None of the investigated compounds influenced A549 cell viability at 100 μM in the absence of bacterial culture supernatant (Fig. S4 ^†). […]
In vitro evaluation of 12 and a combination of 1 and 2 using P. aeruginosa culture supernatant and A549 cells in a cell viability assay
The A549 cell line, derived from human lung adenocarcinoma, was grown in Dulbecco's Modified Eagle Medium (DMEM) supplemented with 10% Fetal Bovine Serum (FBS) and 1% penicillin-streptomycin. The cells were cultured following standard protocols for cell […]
To prepare the bacterial culture supernatant, individual flasks containing 15 mL of lysogeny broth (LB) culture medium were inoculated with PAO1 or PAO1 ΔlasB strains. Culture flasks were placed on a shaker and incubated at 37 °C and 180 rpm overnight for 18 hours. Following incubation, the bacterial cultures were subjected to centrifugation at 4 °C and 5000 rpm for […]
10 min, facilitating the separation of bacterial cells from the supernatant. The latter was filtered through a 0.22 µm sterile filter and stored at –80 °C until further use.
In a flat bottom 96-well plate (Corning™ Costar™), each well was seeded with 2.5–3.5*10 3 cells in 100 µL DMEM/FCS and then incubated at a temperature of 37 °C with 5% CO2 for 24 hours. Then, compounds 12 and 1 combined with 2 in concentrations of 100 µM, 10 µM, and 1 µM were mixed with 10% (v/v) of culture supernatant of P. aeruginosa PAO1 (DSM 22644, ATCC 15692) in DMEM/FCS. To minimize the potential negative effect of DMSO, the compound was initially dissolved in 99.9% DMSO, and a final assay concentration of 0.5% DMSO was applied. Additionally, the cells were exposed to 10% (v/v) PAO1 ΔlasB culture supernatant to analyze the effect caused by LasB, while DMEM/FCS without any treatment served as a control. The plates were then incubated at 37 °C with 5% CO2 for 24 hours before conducting the MTT assay.
To assess cell viability, the medium in the well plates was aspirated and a single wash was performed using 100 µL of phosphate buffered saline, pH 7.4 (PBS). A solution of 5 mg MTT (3-(4,5-dimethylthiazol-2-yl)-2,5-diphenyl tetrazolium bromide) per mL PBS was prepared and diluted to a concentration of 10% (v/v) in DMEM/FCS. Subsequently, 100 µL of this MTT solution was added to each well, and the plates were incubated at 37 °C for 3 hours with 5%
CO2. After incubation, the MTT solution was carefully removed, and the formazan crystals were dissolved by adding 150 µL of lysis solution (250 mL DMSO, 25 g SDS, and 1.25 mL AcOH) to each well. The plates were then incubated for an additional 30 min at 37 °C and then, the UV absorbance was measured using a PHERAstar microplate reader. The test samples were read at a wavelength of 550 nm, while the blank was read at 620 nm. At last, the data were statistically analyzed and presented graphically using GraphPad Prism 9 (Figure S4 and S5).
Evaluation of compounds 1, 2 and 12 in inhibiting LecA adhesion to A549 cells via […]
The A549 cell line were cultured following the protocols for cell maintenance described above.
In a flat-bottom cell culture black 96-well plate (Greiner Bio-One, #Cat 655090) each well was seeded with 1*104 cells in 100 µL DMEM/FCS and subsequently, incubated overnight at 37 °C with 5% CO2. […]

| SMILES | half-life at 1.25 mM [1] [h] | A549 cell viability under PAO1 culture supernatant (A549 cells; 1 μM compound) | A549 cell viability under PAO1 culture supernatant (A549 cells; 10 μM compound) | A549 cell viability under PAO1 culture supernatant (A549 cells; 100 μM compound) | cytotoxicity of PAO1 culture supernatant in presence of compound (A549 cells; 100 μM compound, compared with LasB-deficient strain control) |
| --- | --- | --- | --- | --- | --- |
| O=C(Nc1ccc(S[C@@H]2O[C@H](CO)[C@H](O)[C@H](O)[C@H]2O)cc1)C(S)Cc1ccccc1 (stereo partly drawn) [Compound 11] | 1.33 | – | – | – | – |
| CC(C)CC(S)C(=O)Nc1ccc(S[C@@H]2O[C@H](CO)[C@H](O)[C@H](O)[C@H]2O)cc1 (stereo partly drawn) [Compound 12] | 0.767 | statistically significant beneficial effect on cell viability | increase in cell viability compared to the combination of the individual LasB (2) and LecA (1) inhibitors | increase in cell viability compared to the combination of the individual LasB (2) and LecA (1) inhibitors | reached that of the LasB-deficient strain |

— paper PMC11339798, “Dual inhibitors of Pseudomonas aeruginosa virulence factors LecA and LasB” (Chemical Science, 2024)
